Measured values from patent US6855669B2, “Use of α,β unsaturated aliphatic aldehydes and ketones to inhibit potato tuber sprouting” (Washington State University Research Foundation, priority 2000, dated 2005).
Marks after values point to notes of the source that are not given here.

Tests used:
Type in all cases: in vivo, Solanum tuberosum
[1] = test system: Russet Burbank seed-tubers; assay: Example 3: etiolated sprout development and tuber quality after 28 days; settings: 0.96 mmol/kg, 12 hours at 23° C.; 28 days at 15° C.
Method: (§1) Methods: Eleven-month-old Russet Burbank seed-tubers were taken from a 4° C. storage area and treated with 250 μL of trans-2-hexenal in a 9.2 liter (L) glass desiccator (0.96 mmol/kg potato tubers) for 12 hours at 23° C. The trans-2-hexenal was pipetted onto Whatman #1 filter paper in a glass petri dish (5.5 cm diameter) inside the desiccator. Control tubers were enclosed in a desiccator without trans-2-hexenal. Following treatment, the tubers were enclosed in 1 L […] chambers (3 tubers per chamber) that were placed at 15° C. A continuous airflow (approximately 80 mL/min; 21% O2, 79% N2) was established around the tubers through inlet and outlet ports in the lid of each chamber. Respiration rates were determined at four hour intervals over a 28 day storage period by quantifying CO2 in the outflow from each chamber with a LI-COR model 6262 infra-red gas analyzer (LI-COR Inc., Lincoln Nebr.). The experiment was set up in a randomized complete block design (5 replicates) with two treatments (control and trans-2-hexenal-treated). The effect of trans-2-hexenal exposure on the development of etiolated sprouts was assessed 28 days after removal from the 4° C. storage.

[2] = test system: Russet Burbank seed-tubers; assay: Example 3: potato tuber respiration (CO2 in outflow, infra-red gas analyzer); settings: 0.96 mmol/kg
Method: as §1

[3] = test system: Umatilla seed-tubers; assay: Example 2: etiolated sprout development and tuber quality, Umatilla; settings: 4.7 mmol/kg potato tubers, 25 days
Method: (§2) Methods: Ten-month-old Ranger Russet, Umatilla and Russet Burbank seed-tubers were taken from 4° C. storage and treated with trans-2-hexenal in 9.2-L glass desiccators as described in Example 1. The tubers were exposed to trans-2-hexenal for 0, 12 and 24 hours at 23° C. at a concentration of 4.7 mmol/kg potato tubers. Regardless of exposure time, all tubers remained enclosed in the chambers for the entire 24 hour period. This was accomplished by introducing the trans-2-hexenal at zero-time (into the 24 hour treatment desiccator) and after 12 hour incubation (into the 12 hour treatment desiccator) through a septum in the top of the closed desiccator. The treated tubers were planted into moistened peat/perlite/soil potting mix and placed in the dark at 24° C. to stimulate sprouting. The experiment was set up in a randomized complete block design (5 replicates) with treatments (3 cultivars×3 exposure times) arranged factorially. Effects of trans-2-hexenal exposure and cultivar on etiolated sprout development and tuber quality were assessed 25 days after removal from the 4° C. storage.

[4] = test system: Russet Burbank seed-tubers; assay: Example 2: etiolated sprout development, tuber quality and soluble carbohydrates, Russet Burbank; settings: 4.7 mmol/kg potato tubers, 25 days
Method: as §2

[5] = test system: Desiree potatoes (tubers); assay: Example 1: plant emergence and plant growth from treated tubers planted in greenhouse; settings: 200 μL then 1000 μL in 9.2 L desiccator, 56 hour treatment, harvest 21 days after planting
Method: Methods: […] potatoes were produced in research plots at the Edmonton Research Station, University of Alberta in 1999. The tubers were harvested in September, washed, transported to Washington State University and placed in 4° C. storage in late October. Tubers, selected for uniform size, were taken from the storage area for the experiment in June. The 9-month-old tubers were fully emerged from dormancy after this prolonged storage interval; however, no sprout growth had occurred at the low storage temperature. The tubers were washed, air-dried, and evenly divided between two 9.2 liter (L) glass desiccators (8 tubers per desiccator). Trans-2-hexenal (200 μL) was pipetted into a 50 milliliter (mL) beaker that was placed inside one of the desiccators. The other desiccator served as control. Both desiccators were closed and the tubers were incubated in the two atmospheres for 32 hours. The desiccators were then opened, an additional 1000 μL of trans-2-hexenal was added to the beaker, and the desiccators were closed for an additional 24 hours. One tuber from each chamber was sampled for trans-2-hexenal content at the end of the 56 hour treatment interval. […] Time to plant emergence was recorded and plants were harvested 21 days after planting. Plants were separated into various components (e.g., stems, leaves) at harvest and the effects of trans-2-hexenal on plant morphology were assessed.

[6] = test system: Ranger Russet seed-tubers; assay: Example 2: etiolated sprout development and tuber quality, Ranger Russet; settings: 4.7 mmol/kg potato tubers, 25 days
Method: as §2

## CCC/C=C/C=O [trans-2-hexenal]
[1]
  Average Sprout Length: 0** cm/tuber
  Sprout fresh wt: 0** g/tuber
  Tuber external pit rating: 2.2**
  Tuber fresh wt loss: 11.8** g/tuber
[2]; 12 hours, storage at 15° C.
  time after treatment at which respiration reached a level equal to the untreated tubers: ≤ 32 h
[2]; by the end of the study (27 day storage at 15° C.)
  respiration lower than control tubers: 2.5 fold
[2]; immediately following the 12 hour treatment period
  respiration rate greater than untreated tubers: 38%
[3]; 12 h exposure
  Average Sprout Length: 0 cm/tuber
  External Pit Rating (1-4 scale): 3.7
  Soft Rot Lesions: 2.2 no/tuber
  Sprout Fresh Weight: 0 g/tuber
[3]; 24 h exposure
  Average Sprout Length: 0 cm/tuber
  External Pit Rating (1-4 scale): 4.0
  Soft Rot Lesions: 2.6 no/tuber
  Sprout Fresh Weight: 0 g/tuber
[4]; 12 h exposure
  Average Sprout Length: 0 cm/tuber
  External Pit Rating (1-4 scale): 1.8
  Soft Rot Lesions: 0.6 no/tuber
  Soluble Carbohydrates Fru: 19.5 mg/g dry wt.
  Soluble Carbohydrates Glu: 19.0 mg/g dry wt.
  Soluble Carbohydrates Glu + Fru: 38.5 mg/g dry wt.
  Soluble Carbohydrates Suc: 6.30 mg/g dry wt.
  Sprout Fresh Weight: 0 g/tuber
[4]; 24 h exposure
  Average Sprout Length: 0 cm/tuber
  External Pit Rating (1-4 scale): 2.2
  Soft Rot Lesions: 0.4 no/tuber
  Soluble Carbohydrates Fru: 17.8 mg/g dry wt.
  Soluble Carbohydrates Glu: 16.5 mg/g dry wt.
  Soluble Carbohydrates Glu + Fru: 34.3 mg/g dry wt.
  Soluble Carbohydrates Suc: 6.28 mg/g dry wt.
  Sprout Fresh Weight: 0 g/tuber
[5]
  sprouting, plant emergence and plant growth from potato tubers (in words): clearly inhibited sprouting
[6]; 12 h exposure
  Average Sprout Length: 0 cm/tuber
  External Pit Rating (1-4 scale): 3.1
  Soft Rot Lesions: 1.0 no/tuber
  Sprout Fresh Weight: 0 g/tuber
[6]; 24 h exposure
  Average Sprout Length: 0 cm/tuber
  External Pit Rating (1-4 scale): 3.7
  Soft Rot Lesions: 1.2 no/tuber
  Sprout Fresh Weight: 0 g/tuber
